Experimental data taken from PMC7435819, “Towards the Inhibition of Protein–Protein Interactions (PPIs) in STAT3: Insights into a New Class of Benzothiadiazole Derivatives” (Molecules, 2020).
Where two headings read alike, the source gives them in different places. Where no end group is shown, it is not given here. [ ]: non-standard residue; d: D form. pY = N[C@@H](Cc1ccc(OP(=O)(O)O)cc1)C(=O)O

T1: STAT1 (Homo sapiens, UniProt P42224)
T1 sequence (P42224 1-750): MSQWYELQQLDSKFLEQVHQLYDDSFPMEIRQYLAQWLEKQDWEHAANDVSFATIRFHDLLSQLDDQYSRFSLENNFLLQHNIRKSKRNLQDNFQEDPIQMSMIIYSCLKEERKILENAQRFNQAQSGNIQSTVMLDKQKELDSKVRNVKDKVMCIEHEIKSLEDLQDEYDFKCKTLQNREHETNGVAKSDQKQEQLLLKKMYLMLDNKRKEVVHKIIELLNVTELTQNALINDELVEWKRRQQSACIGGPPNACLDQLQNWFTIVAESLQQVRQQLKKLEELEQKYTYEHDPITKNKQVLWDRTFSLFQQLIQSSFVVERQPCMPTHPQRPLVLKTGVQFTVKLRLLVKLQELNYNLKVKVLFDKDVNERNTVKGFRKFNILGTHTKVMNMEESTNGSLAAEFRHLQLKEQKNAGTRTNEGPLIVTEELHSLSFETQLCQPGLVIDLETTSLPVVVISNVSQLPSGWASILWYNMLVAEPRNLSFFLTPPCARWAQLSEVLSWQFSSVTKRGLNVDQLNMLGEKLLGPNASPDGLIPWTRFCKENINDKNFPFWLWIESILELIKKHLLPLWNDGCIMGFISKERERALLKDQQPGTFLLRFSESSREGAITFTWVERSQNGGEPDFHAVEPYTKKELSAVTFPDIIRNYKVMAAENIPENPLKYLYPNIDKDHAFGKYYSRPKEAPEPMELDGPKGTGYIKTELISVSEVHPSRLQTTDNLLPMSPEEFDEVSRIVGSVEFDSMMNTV


Assays:
[1] = biological target: T2, STAT3 (Homo sapiens, UniProt P40763); test: AlphaScreen-based competitive binding assay, STAT3 SH2 domain vs FITC-GpYLPQTV; conditions: for IC50: STAT3 wild-type (WT), read-out: STAT3 inhibition: IC50
T2 construct: a truncated form of STAT3 (136-705) was constructed and chromatographically purified; made in house
Excerpt: (§1) AlphaScreen is an in vitro competitive binding test used to identify compounds that are able to inhibit the binding of proteins containing an SH2 domain to their corresponding phosphopeptides (5-carboxyfluorescein (FITC)-GpYLPQTV for STAT3 and FITC-GpYDKPHVL for STAT1) (Table 2).
(§2) AlphaScreen is a bead-based non-radioactive assay system for the detection of biomolecular interactions in a microtiter plate format. The binding of biological partners brings donor and acceptor beads into close proximity and, as a result, a fluorescent signal between 520 and 620 nm was produced. The AlphaScreen-based assays were performed in a final reaction volume of 25 μL of the assay buffer containing 10 mM HEPES–NaOH (pH 7.4), 50 mM NaCl, 1 mM EDTA (pH 8.0), 0.1% NP-40, and 10 ng/μL bovine serum albumin (BSA) in a 96-well microtiter plate at 25 °C. The pTyr peptide probes used in this study were 5-carboxyfluorescein (FITC)-GpYLPQTV for STAT3 and (FITC)-GpYDKPHVL for STAT1. Plasmid construction and protein expression were performed as previously described; the experimental method is briefly summarized as follows. Considering that the expression of the full-length protein is troublesome, a truncated form of STAT3 (136-705) was constructed and chromatographically purified (AKTA FPLC system; GE Healthcare Bio-Sciences, Piscataway, NJ, USA). The soluble STAT3 fraction was loaded on a HisTrap™ column (GE Healthcare Bio-Sciences) and eluted with an imidazole gradient (50 mM Tris–HCl pH 7.4, 300 mM NaCl, 0.2 mM EDTA, 0.1% (w/v) NP-40, 5 mM β-mercaptoethanol, 10% (v/v) glycerol, and 10–300 mM imidazole). An SDS-PAGE stained with Coomassie Brilliant Blue (CBB) was performed to check the purity of the protein (see Figure S71). Subsequently, the protein was dialyzed (10 mM HEPES-NaOH pH 7.4, 50 mM NaCl, 10 mM β-mercaptoethanol, 0.1 mM EGTA, 0.02% (w/v) NP-40, 0.2 mM phenylmethylsulphonyl fluoride (PMSF), and 10% (v/v) glycerol).
Firstly, 75 nM of each SH2-containing protein were incubated with the test compound (at the following concentrations: 1, 3, 10, and 30 µM) for 15 min. Each protein sample was then incubated for 90 min with 50 nM of its corresponding FITC-pTyr peptide and simultaneously mixed with streptavidin-coated donor beads and anti-FITC acceptor beads before detection at 570 nm using EnVison Xcite (PerkinElmer, Waltham, MA, USA).

[2] = biological target: T1, STAT1; test: AlphaScreen-based competitive binding assay, STAT1 vs FITC-GpYDKPHVL; conditions: read-out: STAT1 inhibition: IC50
Excerpt: as §1
as §2, with “The soluble STAT3 fraction was loaded on a HisTrap™ column (GE Healthcare Bio-Sciences) and eluted with an imidazole gradient (50 mM Tris–HCl pH 7.4, 300 mM NaCl, 0.2 mM EDTA, 0.1% (w/v) NP-40, 5 mM β-mercaptoethanol, 10% (v/v) glycerol, and 10–300 mM imidazole). An SDS-PAGE stained with Coomassie Brilliant Blue (CBB) was performed to check the purity of the protein (see Figure S71). Subsequently, the protein was dialyzed (10 mM HEPES-NaOH pH 7.4, 50 mM NaCl, 10 mM β-mercaptoethanol, 0.1 mM EGTA, 0.02% (w/v) NP-40, 0.2 mM phenylmethylsulphonyl fluoride (PMSF), and 10% (v/v) glycerol).” left out

[3] = biological target: T3, truncated form of STAT3 (136-705) (UniProt P40763 136-705); test: AlphaScreen or HTRF; same procedure with STAT3 single-cysteine mutants; compound 1 (0.3-30 µM) premixed with L-Cys in PBS and AlphaScreen buffer, mixed with the STAT3 mutant solution before adding the FITC-peptide; conditions: both partners purified
T3 construct: STAT3, residues 136-705; also called STAT3 wild-type; source: plasmid construction and protein expression as previously described [52]; chromatographically purified (HisTrap column, imidazole gradient), dialyzed

[4] = 30 µM, n.a.: not active, read-out: STAT3 % Inhibition (30 µM)
[5] = Table 1, AlphaScreen-based assay at 30 µM, STAT3-SH2 domain, read-out: % Inhibition

T2 sequence (P40763 136-705): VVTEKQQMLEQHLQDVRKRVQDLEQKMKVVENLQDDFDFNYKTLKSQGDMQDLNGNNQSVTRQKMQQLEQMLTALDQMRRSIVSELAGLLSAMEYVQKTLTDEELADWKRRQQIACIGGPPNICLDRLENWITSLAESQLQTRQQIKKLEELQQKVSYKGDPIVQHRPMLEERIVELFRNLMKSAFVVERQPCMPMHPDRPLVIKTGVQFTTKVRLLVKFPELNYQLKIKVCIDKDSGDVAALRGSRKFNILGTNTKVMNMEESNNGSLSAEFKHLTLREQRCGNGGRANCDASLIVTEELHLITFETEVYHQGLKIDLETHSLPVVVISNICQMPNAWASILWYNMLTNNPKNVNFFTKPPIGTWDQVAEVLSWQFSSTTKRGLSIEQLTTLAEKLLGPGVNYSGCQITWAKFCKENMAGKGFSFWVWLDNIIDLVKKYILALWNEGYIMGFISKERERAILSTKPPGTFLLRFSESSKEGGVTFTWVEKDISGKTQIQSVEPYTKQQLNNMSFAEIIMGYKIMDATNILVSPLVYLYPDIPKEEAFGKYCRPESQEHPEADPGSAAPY
T3 sequence (P40763 136-705): as above

| Molecule | inhibition at 30 µM [1, 4] [%] | IC50 [1] [µM] | melting point [°C] | further results |
| --- | --- | --- | --- | --- |
| O=S1(=O)Nc2ccccc2N1 [Compound 1a, 1H,3H-2,1,3-Benzothiadiazole-2,2-dioxide] | 16.4 ± 0.8 | > 30 |  |  |
| Cc1ccc2c(c1)NS(=O)(=O)N2 [Compound 1b, 5-Methyl-1H,3H-2,1,3-benzothiadiazole-2,2-dioxide] | 14.5 ± 0.6 | > 30 | 157 |  |
| O=S1(=O)Nc2ccc(C(F)(F)F)cc2N1 [Compound 1c, 5-(Trifluoromethyl)-1H,3H-2,1,3-benzothiadiazole-2,2-dioxide] | 8.2 ± 1.6 | > 30 | 143 |  |
| O=[N+]([O-])c1ccc2c(c1)NS(=O)(=O)N2 [Compound 1d, 5-Nitro-1H,3H-2,1,3-benzothiadiazole-2,2-dioxide] | 56.9 ± 3.6 | 25.1 |  | IC50 [2]: 15.9 µM |
| O=S1(=O)Nc2ccc(Cl)cc2N1 [Compound 1e, 5-Chloro-1H,3H-2,1,3-benzothiadiazole-2,2-dioxide] | 28.2 ± 1.4 | > 30 |  |  |
| CC(=O)Nc1ccc2c(c1)NS(=O)(=O)N2 [Compound 1f, N-(2,2-Dioxo-1H,3H-2,1,3-benzothiadiazol-5-yl)acetamide] | 18.9 ± 2.3 | > 30 |  |  |
| CC(C)CCNC(=O)CCc1ccc2c(c1)NS(=O)(=O)N2 [Compound 1g, 3-(2,2-Dioxo-1H,3H-2,1,3-benzothiadiazol-5-yl)-N-(3-methylbutyl)propanamide] | 11 ± 2.1 | > 30 |  |  |
| O=C(CCc1ccc2c(c1)NS(=O)(=O)N2)Nc1ccccc1 [Compound 1h, 3-(2,2-Dioxo-1H,3H-2,1,3-benzothiadiazol-5-yl)-N-phenylpropanamide] |  |  | 192 to 197 |  |
| O=S1(=O)Nc2ccc(-c3ccccc3)cc2N1 [Compound 1i, 5-Phenyl-1H,3H-2,1,3-benzothiadiazole-2,2-dioxide] | 6.1 ± 0.9 | > 30 | 180 to 185 |  |
| Cc1cc2c(cc1Br)NS(=O)(=O)N2 [Compound 2a, 5-Bromo-6-methyl-1H,3H-2,1,3-benzothiadiazole-2,2-dioxide] | 25.6 ± 1.2 | > 30 | 185 |  |
| Cc1ccc2c(c1)N(C)S(=O)(=O)N2C [Compound 2b, 1,3,5-Trimethyl-2,1,3-benzothiadiazole-2,2-dioxide] | 8.9 ± 1.1 | > 30 |  |  |
| O=S1(=O)N(Cc2ccccc2)c2ccccc2N1Cc1ccccc1 [Compound 3, 1,3-Dibenzyl-2,1,3-benzothiadiazole-2,2-dioxide] |  |  | 134 |  |
| O=C(CN1c2ccccc2NS1(=O)=O)NCCc1ccccc1 [Compound 4, 2-(2,2-Dioxo-3H-2,1,3-benzothiadiazol-1-yl)-N-(2-phenylethyl)acetamide] | 17.3 ± 1.3 | > 30 | 172 |  |
| Oc1nc2ccccc2[nH]1 [Compound 5, 2,3-Dihydro-1H-1,3-benzodiazol-2-one] | 3.5 ± 5.6 | > 30 |  |  |
| O=S1(=O)Cc2ccccc2C1 [Compound 6] | 11.5 ± 0.8 | > 30 |  |  |
| NC1=NS(=O)(=O)Nc2nonc21 [III] |  |  |  | inhibition at 30 µM [1, 5]: 85.4% |
| CCN1C(Cl)=NS(=O)(=O)c2ccccc21 [II] |  |  |  | inhibition at 30 µM [1, 5]: 43.4% |
| CN1C(Cl)=NS(=O)(=O)c2ccccc21 [I] |  |  |  | inhibition at 30 µM [1, 5]: 79% |
| G[pY]LPQTV (not fully specified (N-terminus), also called pTyr peptide probe for STAT3; phosphotyrosine peptide) [5-carboxyfluorescein (FITC)-GpYLPQTV] |  |  |  | binding result [3]: binds |
